Columns and labels:
Type in all cases: biochemical
ENZ1 SEQ ID N°1 = target: T1, ENZ1 SEQ ID N°1 (Catenulispora acidiphila, UniProt C7QJ42); test: Substrate selectivity screening of hydroxylase (conversion by HPLC after Fmoc-Cl derivatization); settings: enzyme 0.08 mg/mL, molar ratio α-ketoglutarate/substrate 15/10, Hepes buffer 50 mM pH 7,5, Mohr's salt 1mM, without sodium ascorbate, room temperature, three hours
T1 construct: His6 (hexahistidine, inserted after the initial methionine) (N); made in house; host or cells: E. coli BL21(DE3) plysE
T1 sequence (C7QJ42 1-358): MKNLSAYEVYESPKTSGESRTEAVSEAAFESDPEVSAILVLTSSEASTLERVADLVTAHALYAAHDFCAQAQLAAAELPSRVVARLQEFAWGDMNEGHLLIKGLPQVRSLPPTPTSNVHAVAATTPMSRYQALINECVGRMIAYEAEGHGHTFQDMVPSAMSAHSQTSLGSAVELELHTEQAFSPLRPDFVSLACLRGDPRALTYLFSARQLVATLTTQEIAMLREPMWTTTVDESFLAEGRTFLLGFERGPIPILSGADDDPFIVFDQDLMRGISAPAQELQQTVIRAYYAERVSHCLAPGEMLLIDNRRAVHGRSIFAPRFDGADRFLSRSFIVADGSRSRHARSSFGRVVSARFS
Protocol: (§1) Enzymatic reaction medium (0.2 µmole, leq.), borate buffer 0,2M pH 7.7 (80 µL) and Fmoc-Cl solution7.5 mM in acetone (100 µL, 0.75 µmole, 3.75 eq) were hand shaked in a closed 1.50 mL eppendorf for one minute. The aqueous layer was extracted with petroleum ether (3*1 mL) to eliminate excess of Fmoc-Cl. 70 µL of the aqueous phase were withdrawn, diluted with 70 µL of acetonitrile and injected into the HPLC. For substrates with two amine functions, 100 µL of Fmoc-Cl solution 15 mM were used.
(§2) Conditions for HPLC analysis: Atlantis® T3 (3 µm 4.5*150 mm) at 35°C with the gradient 50-86% eluent B (MeCN + 0.1% TFA) and eluent A (H2O + 0.1% TFA) in 20 min at 1 mL/min.
(§3) Enzymes (0.08 mg/mL) were screened against substrates (molar ratio α-ketoglutarate/substrate 15/10) in Hepes buffer 50 mM pH 7,5, with Mohr's salt at 1mM and without sodium ascorbate, at room temperature for three hours. The potential conversions of the substrates were determined by HPLC after Fmoc-Cl derivatization as section III here above.

ENZ4 SEQ ID NO:4 = target: T2, ENZ4 SEQ ID NO:4 (Catenulispora acidiphila, UniProt C7Q942); test: as above; settings: enzyme 0.08 mg/mL, molar ratio α-ketoglutarate/substrate 15/10, Hepes buffer 50 mM pH 7,5, Mohr's salt 1mM, without sodium ascorbate, room temperature, three hours
T2 construct: His6 (hexahistidine, inserted after the initial methionine) (N); made in house; host or cells: E. coli BL21(DE3) plysE
T2 sequence (C7Q942 1-343): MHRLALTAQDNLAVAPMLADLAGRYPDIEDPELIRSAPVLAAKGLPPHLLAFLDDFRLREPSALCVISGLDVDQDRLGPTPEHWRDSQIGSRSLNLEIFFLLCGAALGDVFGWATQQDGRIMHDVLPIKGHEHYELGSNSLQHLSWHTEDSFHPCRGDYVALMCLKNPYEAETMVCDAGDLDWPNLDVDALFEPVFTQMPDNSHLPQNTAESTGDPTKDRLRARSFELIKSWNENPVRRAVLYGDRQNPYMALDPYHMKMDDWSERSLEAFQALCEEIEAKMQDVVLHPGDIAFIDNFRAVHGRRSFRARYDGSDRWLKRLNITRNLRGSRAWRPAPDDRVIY
Protocol: as §1, §2, §3

ENZ2 SEQ ID NO:2 = target: T3, ENZ2 SEQ ID NO:2 (Flavobacterium johnsoniae, UniProt A5FF23); settings: enzyme 0.08 mg/mL, molar ratio α-ketoglutarate/substrate 15/10, Hepes buffer 50 mM pH 7,5, Mohr's salt 1mM, without sodium ascorbate, room temperature, three hours
T3 construct: His6 (hexahistidine, inserted after the initial methionine) (N); made in house; host or cells: E. coli BL21(DE3) plysE
T3 sequence (A5FF23 1-370): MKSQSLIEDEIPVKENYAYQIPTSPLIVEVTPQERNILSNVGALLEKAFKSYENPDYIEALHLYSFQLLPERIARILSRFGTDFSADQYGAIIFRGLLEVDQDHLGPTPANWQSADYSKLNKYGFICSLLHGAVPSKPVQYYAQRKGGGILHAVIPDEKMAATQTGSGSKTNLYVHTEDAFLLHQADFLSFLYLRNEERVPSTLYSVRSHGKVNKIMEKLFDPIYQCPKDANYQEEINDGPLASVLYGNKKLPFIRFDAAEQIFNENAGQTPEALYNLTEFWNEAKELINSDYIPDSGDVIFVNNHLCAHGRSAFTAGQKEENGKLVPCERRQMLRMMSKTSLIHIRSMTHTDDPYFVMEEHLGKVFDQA
Protocol: as §1, §2, §3

ENZ3 SEQ ID NO:3 = target: T4, ENZ3 SEQ ID NO:3 (Chitinophaga pinensis, UniProt C7PLM6); settings: enzyme 0.08 mg/mL, molar ratio α-ketoglutarate/substrate 15/10, Hepes buffer 50 mM pH 7,5, Mohr's salt 1mM, without sodium ascorbate, room temperature, three hours
T4 construct: His6 (hexahistidine, inserted after the initial methionine) (N); made in house; host or cells: E. coli BL21(DE3) plysE
T4 sequence (C7PLM6 1-382): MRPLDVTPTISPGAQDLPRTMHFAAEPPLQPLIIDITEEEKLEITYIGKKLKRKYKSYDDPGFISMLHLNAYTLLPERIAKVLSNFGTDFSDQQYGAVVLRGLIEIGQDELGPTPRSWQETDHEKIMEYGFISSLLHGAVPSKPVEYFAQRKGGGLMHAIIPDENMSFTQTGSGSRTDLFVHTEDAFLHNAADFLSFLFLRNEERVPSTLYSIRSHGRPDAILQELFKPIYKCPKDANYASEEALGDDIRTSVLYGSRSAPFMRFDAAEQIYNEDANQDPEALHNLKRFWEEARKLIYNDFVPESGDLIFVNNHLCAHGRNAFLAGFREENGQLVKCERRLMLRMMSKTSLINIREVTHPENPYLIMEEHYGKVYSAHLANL
Protocol: as §1, §2, §3

ENZ1 (SEQ ID NO:1) = target: T5, ENZ1 (SEQ ID NO:1) (Catenulispora acidiphila, UniProt C7QJ42); test: Enzymatic hydroxylation of L-lysine, 10 mL scale, conversion by HPLC (protocol A); settings: ENZ1 0.024 mg/mL, L-lysine 10 mM, α-ketoglutarate 15 mM, sodium ascorbate 2.5 mM, Fe(II) 1 mM, Hepes pH 7.50, room temperature, 18h
T5 construct: His6 (hexahistidine, inserted after the initial methionine) (N); made in house; host or cells: E. coli BL21(DE3) plysE
T5 sequence (C7QJ42 1-358): T1 sequence (C7QJ42 1-358)
Protocol: as §1, §2
Enzymatic reaction was carried out in 250 mL glass erlenmeyer flask for a total volume of 4*10 mL. Water (4.8 mL), Hepes buffer 1M pH 7.50 (0.5 mL, 50 mM), L-lysine 50 mM (2 mL, 10 mM), α-ketoglutarate 150 mM (1 mL, 15 mM), sodium ascorbate 100 mM (0.25 mL, 2.5 mM), ammonium Iron(II) sulfate hexahydrate 10 mM (1 mL, 1 mM) were poured into the erlenmeyer flask. The reaction was started by the enzyme addition (0.53 mg/mL, 0.45 mL, final concentration 0.024 mg/mL). The reaction mixture was orbitally shaken (300 rpm) at room temperature for 18h. The conversion of L-lysine into 3-hydroxy-L-lysine (94%) was determined by HPLC after derivatization with Fmoc-Cl according to protocol A.

Question: For `NCCCC[C@H](N)C(=O)O` [L-lysine], which “potential conversions of the substrates, ENZ1 SEQ ID N°1” value (ENZ1 SEQ ID N°1) is on record?
Answer: positive

Question: What about the “potential conversions of the substrates, ENZ4 SEQ ID NO:4” value (ENZ4 SEQ ID NO:4) of the same compound?
Answer: negative

Question: And the “potential conversions of the substrates, ENZ2 SEQ ID NO:2” value (ENZ2 SEQ ID NO:2)?
Answer: positive

Question: And the “potential conversions of the substrates, ENZ3 SEQ ID NO:3” value (ENZ3 SEQ ID NO:3)?
Answer: positive

Question: What about the “conversion of L-lysine into 3-hydroxy-L-lysine” value (ENZ1 (SEQ ID NO:1)) of the same compound?
Answer: 94%

Source: EP2876156A1 (COMMISSARIAT A L'ENERGIE ATOMIQUE ET AUX ENERGIES …, priority 2013, dated 2015)
